Data: ChEMBL document CHEMBL1201862, “PubChem BioAssay data set” (2004)
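Briefly, cells in 96-well plates were exposed to five compound concentrations for 48 h, and endpoints were estimated by linear interpolation. GI50 = concentration required for 50% inhibition of growth.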 Activity calls are given as the source filed them. Rule as the data show it: active = GI50 up to about 1.1 µM and inactive = higher.

Assays:
Assay in all cases: NCI anticancer screen, dose series, 48 h
[1] = tested on: DLD-1
[2] = tested on: DMS-114
[3] = tested on: HOP-18
[4] = tested on: KM-20L2
[5] = tested on: LXFL 529
[6] = tested on: M19-MEL
[7] = tested on: RXF 631
[8] = tested on: SNB-78
[9] = tested on: XF498

Measured: GI50

COc1cc2c(cc1OC)CC(=O)Nc1cc(OC)c(OC)cc1CC2
inactive: [1] 40.3 µM | [2] 24.3 µM | [3] > 100 µM | [4] 48.4 µM | [5] > 73.3 µM | [6] 31.8 µM | [7] > 75.9 µM | [8] > 95.5 µM | [9] > 100 µM

O=c1[nH]c(=O)n(C2OC(CO)C(O)C2O)cc1OCc1ccccc1 (stereo not drawn)
inactive: [1] > 59.8 µM | [2] > 57.9 µM | [3] > 100 µM | [4] > 81.7 µM | [5] > 80.4 µM | [6] > 95.5 µM | [7] > 100 µM | [8] > 100 µM | [9] > 100 µM

Cc1ccc(-c2cc(=O)c3cc(C)c(C)c(C(=O)O)c3o2)cc1N
inactive: [1] > 100 µM | [2] > 100 µM | [3] > 100 µM | [4] > 100 µM | [5] > 100 µM | [6] > 100 µM | [7] > 100 µM | [8] > 100 µM | [9] > 100 µM

CCCCCCCCC(O)C#CC(N)=O (stereo not drawn)
inactive: [1] 10.2 µM | [2] 3.34 µM | [3] 12.6 µM | [4] 15.6 µM | [5] 11.2 µM | [6] 11.8 µM | [7] 11.7 µM | [8] 15.6 µM | [9] 17.1 µM

Cc1c(Cl)cccc1NC(=O)C(=O)C1C(=O)CC(C)(C)CC1=O
inactive: [1] > 100 µM | [2] > 100 µM | [3] > 100 µM | [4] > 100 µM | [5] > 100 µM | [6] > 100 µM | [7] > 100 µM | [8] > 100 µM

COc1ccc(C2=Nc3ccccc3N=C(SC)C2)cc1
inactive: [1] 42.8 µM | [2] 44.1 µM | [3] > 100 µM | [4] 41.3 µM | [5] 46.1 µM | [6] 39.8 µM | [7] 47 µM | [8] > 100 µM | [9] 37.8 µM
